Data taken from patent US20120258980A1, “Antibacterial Agent for Drug-Resistant Bacteria, Method for Screening for Same, and Use of Same” (priority 2009, published 2012).
Structures can show the parent of a compound that is named as a salt. Where two headings read alike, the source gives them in different places.

Columns and labels:
[1] = tested on: VISA clinical isolates of MRSA (VI-MRSA) and of MSSA (VI-MSSA); test: microbe, parasite or virus in culture; type: cell-based, Staphylococcus aureus
Outline: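 Strains were grown overnight at 37° C in TSB, adjusted in CAMHB to 0.3 absorbance at 578 nm and diluted 500-fold before equal-volume addition to compound dilutions.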

[2] = tested on: methicillin-susceptible S. aureus (MSSA), MRSA and mutants thereof; test: MIC measurement, Test Example 3 (MSSA, MRSA and sequential gyrA/grlA quinolone-resistant mutants); type: cell-based, Staphylococcus aureus; conditions: Staphylococcus aureus
Excerpt: That is, the first-step quinolone-resistant mutants are bacterial strains which are the same as their parent strains (clinical isolates) except that the genes shown in the corresponding parts of Table 1-1 are mutated. The second-step quinolone-resistant mutants are bacterial strains which are the same as the first-step quinolone-resistant mutants except that the genes shown in the corresponding parts of Table 1-1 are further mutated. The third-step quinolone-resistant mutants are bacterial strains which are the same as the second-step quinolone-resistant mutants except that the genes shown in the corresponding parts of Table 1-1 are further mutated. The fourth-step quinolone-resistant strain is a bacterial strain which is the same as the third-step quinolone-resistant mutant bacteria except that the gene shown in the corresponding part of Table 1-1 is further mutated.
(§1) Each of the bacterial strains listed in Table 1-1 was shake-cultured at 37° C. overnight in 4 mL of a medium (Tryptical Soy Broth: TSB, product of Becton Dickinson and Company). FDA209P was used as a control.
(§2) After completion of culturing, the resultant culture was suspended in a cation-adjusted Mueller Hinton Broth (CAMHB, product of Becton Dickinson and Company). Then, the obtained bacterial culture was adjusted in absorbance with the CAMHB so that the absorbance at 578 nm of the bacterial culture was adjusted to 0.3 measured by an absorption spectrometer. In addition, the resultant bacterial culture was 500-fold diluted with the CAMHB.
(§3) Each of the 500-fold diluted, pre-cultured bacterial cultures was added at 50 μL/well to the CAMHB containing the quinolones and the nybomycins at various concentrations (50 μL/well), followed by statically culturing at 37° C. overnight.
(§4) After completion of culturing, the growth of the bacteria was visually determined based on turbidity to measure MIC in each bacterial strain.

Enterococcus faecalis = test: MIC measurement, Test Example 6 (enterococcus); type: cell-based; conditions: Enterococcus faecalis, read-out: MIC
Protocol: as §1, §2, §3, §4
Quinolones and nybomycins were evaluated for antibacterial activity against Enterococcus faecalis shown in Table 6, wherein the other strains than NCTC12201 and NCTC12203 were subdivided from Shionogi & Co., Ltd (note that these strains are available also from the Department of Bacteriology, Juntendo University). The NCTC strains are both vancomycin-resistant E. faecalis and available from the National Collection of Type Cultures (NCTC).

[3] = tested on: MRSA, CA-MRSA and MSSA of Staphylococcus aureus; test: MIC measurement, Test Example 4 (MRSA, CA-MRSA and MSSA strains); type: cell-based; conditions: Staphylococcus aureus
Outline: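 S. aureus strains (FDA209P control) grown overnight in TSB at 37° C, resuspended in CAMHB, adjusted to A578 0.3 and diluted 500-fold. Equal volume added to CAMHB with serial compound concentrations, incubated statically overnight at 37° C. MIC read visually as lowest concentration without turbidity.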

Measured: MIC

NC1CCN(c2nc3c(cc2F)c(=O)c(C(=O)O)cn3-c2ccc(F)cc2F)C1 (centres unmarked) [TFLX, tosufloxacin tosylate]
64 µg/mL: [1]; Staphylococcus aureus, HIP13036, VI-MRSA, America | [2]; MS5935-2, second-step mutant, further gyrA S84L
32 µg/mL: [1]; Staphylococcus aureus, 28160, VI-MRSA, South African Republic | [1]; Staphylococcus aureus, 98141, VI-MRSA, France | [1]; Staphylococcus aureus, A7 (JCSC4842), VI-MRSA, Taiwan | [1]; Staphylococcus aureus, BR2, VI-MRSA, Brazil | [1]; Staphylococcus aureus, BR3, VI-MRSA, Brazil | [1]; Staphylococcus aureus, LY-1999-03, VI-MRSA, Oman | [1]; Staphylococcus aureus, NJ (HIP5836), VI-MRSA, America
8 µg/mL: [1]; Staphylococcus aureus, 99/3700-W, VI-MRSA, The United Kingdom | [1]; Staphylococcus aureus, LY-1999-01, VI-MSSA, Oman | [1]; Staphylococcus aureus, P1V44, VI-MSSA, Belgium | [3]; KBSA171, MRSA | [3]; KSA24, MRSA
≤ 0.063 µg/mL: [2]; FDA209P / MRSA / MSSA, FDA209P (MSSA), control, read-out: MIC | [2]; MR5867 (MRSA), clinical isolate parent strain, no mutation | Enterococcus faecalis; E. faecalis 36-15688, quinolone-susceptible enterococci | [3]; ATCC 29213 / MRSA / MSSA, ATCC 29213, MSSA | [3]; FDA209P / MRSA / MSSA, FDA209P, MSSA | [3]; ISA12-1, MRSA | [3]; ISA12-2, MRSA | [3]; ISA37-1, MSSA | [3]; ISA49-1, MSSA | [3]; ISA51-1, MSSA | [3]; ISA56-3, MRSA | [3]; ISA62-1, MRSA | [3]; ISA73-1, MSSA | [3]; KBSA32, MRSA | [3]; KBSA34, MRSA | [3]; MRSA / MSSA / NCTC 8325, NCTC 8325, MSSA | [3]; MW2, CA-MRSA | [3]; N315, MRSA
16 µg/mL: [1]; Staphylococcus aureus, 99/3759-V, VI-MRSA, The United Kingdom | [1]; Staphylococcus aureus, B7 (JCSC4852), VI-MRSA, Taiwan | [1]; Staphylococcus aureus, MI (HIP5827), VI-MRSA, America | [1]; Staphylococcus aureus, Mu3, VI-MRSA, Japan | [3]; KBSA96, MRSA | [3]; MRSA / MSSA / USA300, USA300 FPR3757, CA-MRSA
2 µg/mL: [2]; MS5952-1, first-step quinolone-resistant mutant, grlA S80Y
0.125 µg/mL: [3]; COL, MRSA
> 128 µg/mL: [1]; Staphylococcus aureus, AMC11094, VI-MRSA, Korea | [1]; Staphylococcus aureus, BR4, VI-MRSA, Brazil | [1]; Staphylococcus aureus, BR5, VI-MRSA, Brazil | [1]; Staphylococcus aureus, HIP07930, VI-MRSA, America | [1]; Staphylococcus aureus, HIP09143, VI-MRSA, America | [1]; Staphylococcus aureus, HIP09433, VI-MRSA, America | [1]; Staphylococcus aureus, HIP09662, VI-MRSA, America | [1]; Staphylococcus aureus, HIP09735, VI-MRSA, America | [1]; Staphylococcus aureus, HIP09737, VI-MSSA, America | [1]; Staphylococcus aureus, HIP09740, VI-MRSA, America | [1]; Staphylococcus aureus, HIP10267, VI-MRSA, America | [1]; Staphylococcus aureus, HIP12864, VI-MRSA, America | [1]; Staphylococcus aureus, HIP13057, VI-MRSA, America | [1]; Staphylococcus aureus, IL (HIP7737), VI-MRSA, America | [1]; Staphylococcus aureus, JCSC7195, VI-MRSA, Thailand | [1]; Staphylococcus aureus, LIM2, VI-MRSA, France | [1]; Staphylococcus aureus, MRSA / MSSA / NRS 76 / VISA, NRS76, VI-MSSA, America | [1]; Staphylococcus aureus, MRSA / MSSA / NRS 79 / VISA, NRS79, VI-MRSA, America | [1]; Staphylococcus aureus, MRSA / MSSA / NRS 118 / VISA, NRS118, VI-MRSA, America | [1]; Staphylococcus aureus, Mu50, VI-MRSA, Japan | [2]; MR5867-3, third-step mutant, further grlA S80F | [2]; MR5867-4, fourth-step mutant, further gyrA E88K | [2]; MS5935-3, third-step mutant, further grlA E84K | [2]; MS5952-3, third-step mutant, further grlA A116V | Enterococcus faecalis; E. faecalis 36-15686, quinolone-resistant enterococci | Enterococcus faecalis; E. faecalis 36-15694, quinolone-resistant enterococci | Enterococcus faecalis; E. faecalis 36-15703, quinolone-resistant enterococci | Enterococcus faecalis; E. faecalis 36-15716, quinolone-resistant enterococci | Enterococcus faecalis; E. faecalis 36-15722, quinolone-resistant enterococci | Enterococcus faecalis; E. faecalis 36-15726, quinolone-resistant enterococci | [3]; KBSA72, MRSA | [3]; KSA36, MRSA
128 µg/mL: [1]; Staphylococcus aureus, BR1, VI-MRSA, Brazil | [1]; Staphylococcus aureus, HIP06297, VI-MRSA, America | [1]; Staphylococcus aureus, HIP06854, VI-MRSA, America | [1]; Staphylococcus aureus, HIP08926, VI-MRSA, America | [1]; Staphylococcus aureus, HIP09313, VI-MRSA, America | [1]; Staphylococcus aureus, HIP10540, VI-MRSA, America | [1]; Staphylococcus aureus, JCSC7193, VI-MRSA, Thailand | [1]; Staphylococcus aureus, JCSC7203, VI-MRSA, Thailand | [1]; Staphylococcus aureus, MRSA / MSSA / NRS 126 / VISA, NRS126, VI-MRSA, America | [1]; Staphylococcus aureus, PC, VI-MRSA, America
1 µg/mL: [1]; Staphylococcus aureus, SA MER-S20, VI-MSSA, France | [2]; MS5935-1, first-step quinolone-resistant mutant, grlA S80F
0.5 µg/mL: Enterococcus faecalis; E. faecalis 36-15672, quinolone-susceptible enterococci | Enterococcus faecalis; E. faecalis 36-15673, quinolone-susceptible enterococci | Enterococcus faecalis; E. faecalis 36-15678, quinolone-susceptible enterococci | Enterococcus faecalis; E. faecalis 36-15720, quinolone-susceptible enterococci | Enterococcus faecalis; E. faecalis 36-15730, quinolone-susceptible enterococci | Enterococcus faecalis; E. faecalis 36-15741, quinolone-susceptible enterococci | Enterococcus faecalis; NCTC 12203 / VRE, E. faecalis NCTC12203, vancomycin-resistant (VRE), quinolone-susceptible enterococci | [3]; ISA58-1, MRSA
0.25 µg/mL: [1]; Staphylococcus aureus, SA MER-S6, VI-MSSA, France | [1]; Staphylococcus aureus, SA MER-S12, VI-MSSA, France | Enterococcus faecalis; E. faecalis 36-15696, quinolone-susceptible enterococci | Enterococcus faecalis; E. faecalis 36-15718, quinolone-susceptible enterococci | Enterococcus faecalis; E. faecalis 36-15736, quinolone-susceptible enterococci | Enterococcus faecalis; NCTC 12201 / VRE, E. faecalis NCTC12201, vancomycin-resistant (VRE), quinolone-susceptible enterococci | [3]; ISA35-1, MRSA
4 µg/mL: [1]; Staphylococcus aureus, HIP07920, VI-MRSA, America | [3]; KSA31, MRSA
